Measurements: patent publication US12180226B2, “Spirotricycle RIPK1 inhibitors and methods of uses thereof” (Merck Sharp & Dohme LLC, priority 2021, dated 2024)
Where a name gives a salt, the structure may show the parent alone.

Molecular target: RIPK1 (recombinant GST-RIPK1 kinase domain, residues 1-327) (Homo sapiens (Human), UniProt Q13546)
Test: RIPK1-ADP-Glo Enzymatic Assay
Type: biochemical
Settings: ADP-Glo; 25 nM GST-RIPK1, 300 μM ATP; assay lower limit ~25 nM; read-out: RIPK1 V0 Ec50
Summary of the method: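 Compounds titrated 10-pt 1:3 from 100000 nM top (1% DMSO); 30 min preinc w/ 25 nM Sf21-expressed enzyme, RT; start w/ ATP (300 μM final) + dephos-MBP (3 μM); 150 min; ADP-Glo lumi; 4-param fit → EC50.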

RIPK1 (recombinant GST-RIPK1 kinase domain, residues 1-327), sequence (Q13546 1-327): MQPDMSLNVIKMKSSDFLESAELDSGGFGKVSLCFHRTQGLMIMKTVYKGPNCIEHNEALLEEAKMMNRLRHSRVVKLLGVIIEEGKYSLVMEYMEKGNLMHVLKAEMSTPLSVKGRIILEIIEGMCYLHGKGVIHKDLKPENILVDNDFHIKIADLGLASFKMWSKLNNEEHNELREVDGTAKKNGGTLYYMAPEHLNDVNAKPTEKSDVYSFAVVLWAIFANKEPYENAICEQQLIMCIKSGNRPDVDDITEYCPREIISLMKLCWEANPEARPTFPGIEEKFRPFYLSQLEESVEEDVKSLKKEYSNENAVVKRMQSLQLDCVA

Structure (SMILES) | EC50 [nM]
Cc1cc(C)cc(C(=O)N2CCC3(CC2)O[C@@H]2CC[C@@H](c4ccccc4)N2C3=O)c1 [Example 6.150, (5′S,7a′R)-1-(3,5-dimethylbenzene-1-carbonyl)-5′-phenyl-tetrahydro-3′H-spiro [piperidine-4,2′-pyrrolo[2,1-b][1,3]oxazol]-3′-one] | 118
CCc1ccc(N2CCC3(CC2)O[C@@H]2CC[C@@H](c4ccccc4)N2C3=O)n2ncnc12 [Example 4.221, (5′S,7a′R)-1-(8-ethyl[1,2,4]triazolo[1,5-a]pyridin-5-yl)-5′-phenyltetrahydro-3′H-spiro[piperidine-4,2′-pyrrolo[2,1-b] [1,3]oxazol]-3′-one] | < 25
Cc1ncc([C@@H]2CC[C@H]3OC4(CCN(C(=O)c5ccccc5)CC4)C(=O)N32)cc1F [Example 2.1, (5′S,7a′R)-1-benzoyl-5′-(5-fluoro-6-methylpyridin-3-yl)tetrahydro-3′H-spiro[piperidine-4,2′-pyrrolo[2,1-b]oxazol]-3′-one, TFA salt.] | 76.5
Cc1cc(F)c(C(=O)N2CCC3(CC2)O[C@@H]2CC[C@@H](c4ccccc4)N2C3=O)cc1F [Example 5.12, (5′S,7a′R)-1-(2,5-difluoro-4-methylbenzene-1-car-bonyl)-5′-phenyltetra-hydro-3′H-spiro[piperi-dine-4,2′-pyrrolo[2,1-b] [1,3]oxazol]-3′-one] | < 25
N#Cc1cccc(C(=O)N2CCC3(CC2)O[C@@H]2CC[C@@H](c4cc(F)cc(F)c4)N2C3=O)c1 [Example 5.17, 3-((5′S,7a′R)-5′-(3,5-difluorophenyl)-3′-oxo-tetrahydro-3′H-spiro [piperidine-4,2′-pyrrolo-[2,1-b]oxazole]-1-carbon-yl)benzonitrile] | 25
COc1ccc(F)c(C(=O)N2CCC3(CC2)O[C@@H]2CC[C@@H](c4cc(F)cc(F)c4)N2C3=O)c1 [Example 6.6, (5′S,7a′R)-5′-(3,5-difluorophenyl)-1-(2-fluoro-5-methoxy-benzene-1-carbonyl) tetrahydro-3′H-spiro [piperidine-4,2′-pyrrolo[2,1-b][1,3]oxazol]-3′-one] | < 25
Cc1nc(C(=O)N2CCC3(CC2)O[C@@H]2CC[C@@H](c4cc(F)cc(F)c4)N2C3=O)no1 [Example 6.20, (5′S,7a′R)-5′-(3,5-difluorophenyl)-1-(5-methyl-1,2,4-oxadi-azole-3-carbonyl)-tetrahydro-3′H-spiro [piperidine-4,2′-pyrrolo[2,1-b][1,3]oxazol]-3′-one] | 136
N#Cc1cnc(N2CCC3(CC2)O[C@@H]2CC[C@@H](c4ccccc4)N2C3=O)n2ncnc12 [Example 4.241, 5-[(5′S,7a′R)-3′-oxo-5′-phenyltetrahydro-1H,3′H-spiro[piperidine-4,2′-pyrrolo[2,1-b] [1,3]oxazol]-1-yl][1,2,4]triazolo[1,5-c] pyrimidine-8-carbonitrile] | < 25
O=C(c1c(F)cc(F)cc1F)N1CCC2(CC1)O[C@@H]1CC[C@@H](c3cc(F)cc(F)c3)N1C2=O [Example 5.2, (5′S,7a′R)-5′-(3,5-difluoro-phenyl)-1-(2,4,6-trifluoro-benzene-1-carbonyl)tetra-hydro-3′H-spiro[piperi-dine-4,2′-pyrrolo[2,1-b] [1,3]oxazol]-3′-one] | < 25
N#Cc1cccc(N2CCC3(CC2)O[C@@H]2CC[C@@H](c4ccccc4)N2C3=O)n1 [Example 4.29, 6-[(5′S,7a′R)-3′-oxo-5′-phenyltetrahydro-1H,3′H-spiro[piperidine-4,2′-pyrrolo[2,1-b] [1,3]oxazol]-1-yl]pyridine-2-carbonitrile] | < 25
CCc1ccnc(C(=O)N2CCC3(CC2)O[C@@H]2CC[C@@H](c4cc(F)cc(F)c4)N2C3=O)c1 [Example 6.79, (5′S,7a′R)-5′-(3,5-difluorophenyl)-1-(4-ethylpyridine-2-carbonyl)tetrahydro-3′H-spiro[piperidine-4,2′-pyrrolo[2,1-b][1,3]oxazol]-3′-one] | 38.3
O=C1N2[C@@H](CC[C@H]2c2ccccc2F)OC12CCN(c1ccnc3c(F)cnn13)CC2 [Example 4.102, (5′S,7a′R)-5′-(2-fluorophenyl)-1-(3-fluoropyrazolo[1,5-a]pyrimidin-7-yl)tetrahydro-3′H-spiro[piperidine-4,2′-pyrrolo[2,1-b]oxazol]-3′-one] | < 25
CC1CN(C(=O)c2ccccc2)CCC12O[C@@H]1CC[C@@H](c3cc(F)cc(F)c3)N1C2=O (stereo partly drawn) [Example 6.109, (5′S,7a′R)-1-(benzene-carbonyl)-5′-(3,5-difluorophenyl)-3-methyltetrahydro-3′H-spiro[piperidine-4,2′-pyrrolo[2,1-b][1,3]-oxazol]-3′-one] | < 25
O=C(c1cc(F)ccc1F)N1CCC2(CC1)O[C@@H]1CC[C@@H](c3cc(F)cc(F)c3)N1C2=O [Example 5.1, (5′S,7a′R)-1-(2,5-Difluorobenzoyl)-5′-(3,5-difluorophenyl)tetrahydro-3′H-spiro[piperidine-4,2′-pyrrolo[2,1-b]oxazol]-3′-one] | < 25
O=C1N2[C@@H](CC[C@H]2c2ccccc2)OC12CCN(c1ccnc3ccnn13)CC2 [Example 4.28, (5′S,7a′R)-5′-phenyl-1-(pyrazolo[1,5-a]pyrimidin-7-yl)tetrahydro-3′H-spiro[piperidine-4,2′-pyrrolo[2,1-b] [1,3]oxazol]-3′-one] | < 25
CCOc1cnc(N2CCC3(CC2)O[C@@H]2CC[C@@H](c4cc(F)cc(F)c4)N2C3=O)nc1 [Example 4.57, (5′S,7a′R)-5′-(3,5-difluorophenyl)-1-(5-ethoxypyrimidin-2-yl)tetrahydro-3′H-spiro[piperidine-4,2′-pyrrolo[2,1-b] [1,3]oxazol]-3′-one] | 243
CCOc1cccc(C(=O)N2CCC3(CC2)O[C@@H]2CC[C@@H](c4ccccc4)N2C3=O)c1 [Example 6.139, (5′S,7a′R)-1-(3-ethoxybenzene-1-carbonyl)-5′-phenyl-tetrahydro-3′H-spiro [piperidine-4,2′-pyrrolo[2,1-b][1,3]-oxazol]-3′-one] | < 25
O=C1N2C(CCC2c2cc(F)cc(F)c2)SC12CCN(c1ccnc3c(F)cnn13)CC2 (stereo not shown) [Example 4.110, 5′-(3,5-difluorophenyl)-1-(3-fluoropyrazolo[1,5-a]pyrimidin-7-yl)tetrahydro-3′H-spiro[piperidine-4,2′-pyrrolo[2,1-b]thiazol]-3′-one] | < 25
Cc1ccccc1[C@@H]1CC[C@H]2OC3(CCN(c4ccnc5c(F)cnn45)CC3)C(=O)N21 [Example 4.255, (5′S,7a′R)-1-(3-fluoropyrazolo[1,5-a]pyrimidin-7-yl)-5′-(2-methylphenyl)tetrahydro-3′H-spiro[piperidine-4,2′-pyrrolo[2,1-b] [1,3]oxazol]-3′-one] | 40.3
Cc1ccc(C(=O)N2CCC3(CC2)O[C@@H]2CC[C@@H](c4cc(F)cc(F)c4)N2C3=O)cn1 [Example 6.69, (5′S,7a′R)-5′-(3,5-difluorophenyl)-1-(6-methylpyridine-3-carbonyl)tetrahydro-3′H-spiro[piperidine-4,2′-pyrrolo[2,1-b] [1,3]oxazol]-3′-one] | 46.8
Cn1cc(C(=O)N2CCC3(CC2)O[C@@H]2CC[C@@H](c4cc(F)cc(F)c4)N2C3=O)cn1 [Example 5.53, (5′S,7a′R)-5′-(3,5-difluoro-phenyl)-1-(1-methyl-1H-pyrazole-4-carbonyl)tetra-hydro-3′H-spiro[piperidine-4,2′-pyrrolo[2,1-b]oxazol]-3′-one] | 509

Next, values leading:

EC50 [nM] | Structure (SMILES)
108 | N#Cc1cncc([C@@H]2CC[C@H]3SC4(CCN(C(=O)c5ccccc5)CC4)C(=O)N32)c1 [Example 7.4, 5-[(5′S,7a′R)-1-(benzenecarbonyl)-3′-oxotetrahydro-3′H-spiro[piperidine-4,2′-pyrrolo[2,1-b][1,3]thiazol]-5′-yl]pyridine-3-carbonitrile]
421 | O=C1N2[C@@H](CC[C@H]2c2ccccc2F)OC12CN(S(=O)(=O)c1cccc(F)c1)C2 [Example 8.6, (5′S,7a′R)-5′-(2-fluorophenyl)-1-((3-fluorophenyl)sulfonyl) tetrahydro-3′H-spiro[azetidine-3,2′-pyrrolo[2,1-b]oxazol]-3′-one]
< 25 | O=C1N2[C@@H](CC[C@H]2c2ccccc2)OC12CCN(c1cc(-c3cnn(C(F)F)c3)ncn1)CC2 [Example 10.2, (5′S,7a′R)-1-{6-[1-(difluoromethyl)-1H-pyrazol-4-yl]pyrimidin-4-yl}-5′-phenyltetrahydro-3′H-spiro[piperidine-4,2′-pyrrolo[2,1-b][1,3]oxazol]-3′-one]
221 | O=C1N2[C@@H](CC[C@H]2c2cc(F)cc(F)c2)OC12CCN(C(c1ccccc1)C(F)F)CC2 (stereo partly drawn) [Example 22.1, (5′S,7a′R)-1-(2,2-Difluoro-1-phenylethyl)-5′-(3,5-difluorophenyl)tetrahydro-3′H-spiro[piperidine-4,2′-pyrrolo[2,1-b]oxazol]-3′-one]
69.8 | CC(C)NC(=O)c1nc(N2CCC3(CC2)O[C@@H]2CC[C@@H](c4cc(F)cc(F)c4)N2C3=O)ncc1F [Example 7.14, 2-[(5′S,7a′R)-5′-(3,5-difluorophenyl)-3′-oxotetrahydro-1H,3′H-spiro[piperidine-4,2′-pyrrolo[2,1-b][1,3]oxazol]-1-yl]-5-fluoro-N-(propan-2-yl)pyrimidine-4-carboxamide]
32 | O=C1N2[C@@H](CC[C@H]2c2cc(F)cc(F)c2)OC12CCN(c1ccc(Cl)c3nccn13)CC2 [Example 13.16, (5′S,7a′R)-1-(8-chloroimidazo[1,2-a]pyridin-5-yl)-5′-(3,5-difluorophenyl)tetrahydro-3′H-spiro[piperidine-4,2′-pyrrolo[2,1-b]oxazol]-3′-one, TFA salt]
< 25 | N#Cc1cc([C@@H]2CC[C@H]3OC4(CCN(c5ccnc6c(F)cnn56)CC4)C(=O)N32)ccc1F [Example 20.6, 2-fluoro-5-[(5′S,7a′R)-1-(3-fluoropyrazolo[1,5-a]pyrimidin-7-yl)-3′-oxotetrahydro-3′H-spiro[piperidine-4,2′-pyrrolo[2,1-b][1,3]oxazol]-5′-yl]benzonitrile]
